Measured values taken from patent publication US10570179B2, “Substituted urea depsipeptide analogs as activators of the CLPP endopeptidase” (priority 2016, dated 2020).
Converted amounts (≈) assume the structure as drawn. Like-named read-outs stand apart in the source and are kept apart here. Numbered stars: 1 amine (or outer) side, 2 acyl side, 3 side chain; on linkers, the order of the positions; unused ones are H or OH. Bridge positions count the residues as written; N and C are the ends. Square brackets hold non-standard residues; d marks the D form. Peptide text beside a SMILES is read from it. * marks the point of attachment. Piperazine(2S-CO,4-Me) = CN1CCN[C@H](C(=O)O)C1; Phe(3-Me) = Cc1cccc(C[C@H](N)C(=O)O)c1; X4 = O=C1CN([*:1])[C@H](C(=O)[*:2])CN1; Pro(4R-Me) = C[C@H]1CN[C@H](C(=O)O)C1; Hyp = O=C(O)[C@@H]1C[C@@H](O)CN1; NH(3-Cl-phenyl) = Clc1cccc(N*)c1; NH(4-Cl-phenyl) = Clc1ccc(N*)cc1; NH(4-Et-phenyl) = CCc1ccc(N*)cc1; aThr = C[C@H](O)[C@H](N)C(=O)O; Pip = O=C(O)[C@@H]1CCCCN1; CO = O=C([*:1])[*:2]

Experiments:
S. aureus ΔClpP = assay: Minimal inhibitory concentration, microbroth dilution; assay type: cell-based, Staphylococcus aureus; details: MIC; ClpP inactivated
Experimental: (§1) Minimal inhibitory concentrations (“MICs”) were determined using the microbroth dilution method according to Clinical Laboratory Standards Institute (CLSI; National, C.F. C. L. S., Methods for Dilution Antimicrobial Susceptibility Tests for Bacteria Grow aerobically-Seventh Edition: Approved Standard M7-A7, CLSI, Wayne, Pa., USA, 2008) and were read by visual inspection. Two fold serial dilutions of test compound in 100 μL of the appropriate broth media were first prepared in 96-well round bottom microtiter plates (Nalgene Nunc International, Rochester, N.Y., USA). An equivalent volume (100 μL) of bacterial broth inocula containing approximately 10^5 bacterial cfu/mL was added to each well to give final concentrations of test compound starting at 200 μM. The plates were then incubated aerobically at 37° C. All strains were incubated overnight. After incubations, in all cases the MIC was recorded as the lowest concentration of drug that prevented bacterial growth. The bacterial strains for which MIC was determined as described in Table 4.

S. aureus ClpP (Sa-ClpP) = target: T1, S. aureus ClpP (Sa-ClpP) (Staphylococcus aureus, UniProt Q2G036); assay: Casein-BODIPY digestion assay (ClpP activation); assay type: biochemical
T1 construct: made in house; host or cells: E. coli BL21 (DE3)
Experimental: The compounds were assayed in a casein digestion assay in order to determine their effect on ClpP activation. Briefly, the assay was carried out using S. aureus ClpP (“Sa-ClpP”) overexpressed in E. coli BL21 (DE3) and purified in a two-step process. Purity of the protein was assessed through SDS PAGE analysis. EC50 evaluations were conducted in triplicate in a 20 μl assay format using a method adapted from Maurizi et al. (Methods Enzymol. (1994) 244:314-331). Each well contained 10 μM saClpP, 25 μg/ml BODIPY FL casein (Invitrogen Corporation, San Diego, Calif.), and test compound in concentrations ranging between 0-1000 μM in assay buffer (50 mM Tris pH 8, 200 mM KCl, and 1 mM TCEP). The reaction took place at 37° C. Fluorescence (excitation 485 nm; emission 528 nm) was measured in five minute intervals over a 45 min period using a BioTek HT fluorescence microplate reader (BioTek Instruments, Inc., Winooski, Vt.). Velocity of each reaction was calculated and data was fit to a dose response curve using GraphPad Prism® software (GraphPad Software, Inc., La Jolla, Calif.). EC50 is the effective concentration of compound which causes 50% activation of S. aureus ClpP in the foregoing BODIPY FL casein assay.
Alternatively, the assay was carried out using EnzCheck Protease Assay (Molecular Probes, Catalog # E6638). The assay was performed in black 384 well, flat bottom, low volume plates (Greiner Bio-One, Monroe, N.C., catalog #784076). 10 μL of Tris.HCl buffer, pH 8.0 with 0.01% Triton X-100 was pipetted into each well using a Well-Mate (Thermo Scientific, Waltham, Mass.). 0.4 μL test compounds or controls (2% DMSO v/v) were added to each well using a Biomek FX liquid handling robot (Beckman Coulter, Indianapolis, Ind.). After addition of test compounds and controls, 10 μL of master mix containing 2 μM Sa-ClpP and 2 μM substrate (Bodipy-FL labeled casein) in Tris.HCl buffer, pH 8.0 with 0.01% (v/v) Triton X-100, was pipetted into each well. All assays were performed in triplicate, under linear velocity conditions. Increase in fluorescent signal following activation of Sa-ClpP by test compounds and controls was measured over time period of 30 mins using filters with excitation at 485±15 nm and emission at 520±25 nm on a PHERAstar FS Multilabel reader (BMG, Cary, N.C.). Instrument gains and enzyme linear velocity conditions were determined and validated using ADEP4, a known Sa-ClpP activator. Data analysis was done by measuring rate of casein degradation over time (slopes). Computed degradation rates (slopes) were normalized to positive (ADEP4) or negative (DMSO) controls. Using nonlinear regression curve fitting EC50 values and % activation were determined using the equation “log [agonist] vs. Response-variable slope (four parameters)-symmetrical” in the program Prism 6 (GraphPad Software, La Jolla, Calif. USA, www.graphpad.com).

E. faecails = assay: Minimal inhibitory concentration, microbroth dilution; assay type: cell-based; details: Enterococcus faecalis
Experimental: as §1

S. aureus ATCC 29213 = assay: as above; assay type: cell-based; details: Staphylococcus aureus
Experimental: as §1

S. aureus USA 300 = assay: as above; assay type: cell-based; details: Staphylococcus aureus
Experimental: as §1

MRSA NRS70 = assay: as above; assay type: cell-based; details: Staphylococcus aureus
Experimental: as §1

[1] = read-out: Minimal Inhibitory Concentrations (μM) E. faecails, MIC
[2] = ATCC29213, read-out: Minimal Inhibitory Concentrations (μM) S. aureus ATCC 29213, MIC
[3] = USA300, read-out: Minimal Inhibitory Concentrations (μM) S. aureus USA 300, MIC
[4] = read-out: Minimal Inhibitory Concentrations (μM) MRSA NRS70, MIC

T1 sequence (Q2G036 whole entry): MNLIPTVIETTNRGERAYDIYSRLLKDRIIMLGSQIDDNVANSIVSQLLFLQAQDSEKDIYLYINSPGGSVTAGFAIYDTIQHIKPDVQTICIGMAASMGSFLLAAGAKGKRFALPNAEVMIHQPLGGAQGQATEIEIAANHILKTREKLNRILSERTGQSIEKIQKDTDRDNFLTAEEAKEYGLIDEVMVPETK

Row | SMILES | Minimal Inhibitory Concentrations (μM) S. aureus ΔClpP (S. aureus ΔClpP) [µM] | EC50 (S. aureus ClpP (Sa-ClpP)) [nM] | MIC (E. faecails; MIC, read-out: Minimal Inhibitory Concentrations (μM) E. faecails) [µM] | MIC (S. aureus ATCC 29213; ATCC29213, MIC, read-out: Minimal Inhibitory Concentrations (μM) S. aureus ATCC 29213) [µM] | MIC (S. aureus USA 300; USA300, MIC, read-out: Minimal Inhibitory Concentrations (μM) S. aureus USA 300) [µM] | MIC (MRSA NRS70; MIC, read-out: Minimal Inhibitory Concentrations (μM) MRSA NRS70) [µM] | MIC (E. faecails; [1]) [µM] | MIC (S. aureus ATCC 29213; [2]) [µM] | MIC (S. aureus USA 300; [3]) [µM] | MIC (MRSA NRS70; [4]) [µM]
1 | CCc1ccc(NC(=O)N[C@@H](Cc2cccc(C)c2)C(=O)N[C@@H]2C(=O)N3C[C@H](O)C[C@H]3C(=O)N3CCCC[C@H]3C(=O)N[C@@H](C)C(=O)N3CCC[C@H]3C(=O)O[C@H]2C)cc1 [Compound 58, (S)-2-(3-(4-ETHYLPHENYL)UREIDO)-N-((6S,8AS,14AS,16R,20S,21S,23AS)-16-HYDROXY-6,21-DIMETHYL-5,8,14,19,23-PENTAOXOOCTADECAHYDRO-1H,5H,14H,19H-PYRIDO[2,1-I]DIPYRROLO[2,1-C:2′,1′-L][1]OXA[4,7,10,13]TETRAAZACYCLOHEXADECIN-20-YL)-3-(M-TOLYL)PROPANAMIDE] ({NH(4-Et-phenyl)-CO}-[Phe(3-Me)][aThr][Hyp][Pip]AP; ester 2-C) | >20 | 270 ± 100 | 2.5 (≈ 2 µg/mL) | 2.5 (≈ 2 µg/mL) | 0.625 (≈ 0.501 µg/mL) | 0.625 (≈ 0.501 µg/mL) | – | – | – | –
2 | Cc1cccc(C[C@H](NC(=O)Nc2ccc(Cl)cc2)C(=O)N[C@H]2COC(=O)[C@@H]3C[C@H](C)CN3C(=O)[C@H](C)NC(=O)[C@@H]3CCCCN3C(=O)[C@@H]3CCCN3C2=O)c1 [Compound 53, (S)-2-(3-(4-CHLOROPHENYL)UREIDO)-N-((2S,6S,8AS,14AS,20S,23AS)-2,6-DIMETHYL-5,8,14,19,23-PENTAOXOOCTADECAHYDRO-1H,5H,14H,19H-PYRIDO[2,1-I]DIPYRROLO[2,1-C:2′,1′-L][1]OXA[4,7,10,13]TETRAAZACYCLOHEXADECIN-20-YL)-3-(M-TOLYL)PROPANAMIDE] | >20 | 670 ± 300 | – | – | – | – | 5 (≈ 3.96 µg/mL) | 1.25 (≈ 0.99 µg/mL) | 2.5 (≈ 1.98 µg/mL) | 1.25 (≈ 0.99 µg/mL)
3 | Cc1cccc(C[C@H](NC(=O)Nc2ccc(Cl)cc2)C(=O)N[C@@H]2C(=O)N3C[C@H](O)C[C@H]3C(=O)N3CCN(C)C[C@H]3C(=O)N[C@@H](C)C(=O)N3C[C@H](C)C[C@H]3C(=O)O[C@H]2C)c1 [Compound 68, (S)-2-(3-(4-CHLOROPHENYL)UREIDO)-N-((6AS,8R,12S,13S,15AS,17R,21S,23AS)-8-HYDROXY-2,13,17,21-TETRAMETHYL-6,11,15,20,23-PENTAOXOOCTADECAHYDRO-2H,6H,11H,15H-PYRAZINO[2,1-I]DIPYRROLO[2,1-C:2′,1′-L][1]OXA[4,7,10,13]TETRAAZACYCLOHEXADECIN-12-YL)-3-(M-TOLYL)PROPANAMIDE] ({NH(4-Cl-phenyl)-CO}-[Phe(3-Me)][aThr][Hyp][Piperazine(2S-CO,4-Me)]A[Pro(4R-Me)]; ester 2-C) | >20 | 290 ± 100 | – | – | – | – | 0.625 (≈ 0.523 µg/mL) | 1.25 (≈ 1.05 µg/mL) | 0.625 (≈ 0.523 µg/mL) | 2.5 (≈ 2.09 µg/mL)
4 | Cc1cccc(C[C@H](NC(=O)Nc2cccc(Cl)c2)C(=O)N[C@@H]2C(=O)N3CCC[C@H]3C(=O)N3CC(=O)NC[C@H]3C(=O)N[C@@H](C)C(=O)N3C[C@H](C)C[C@H]3C(=O)O[C@H]2C)c1 [Compound 76, (S)-2-(3-(3-CHLOROPHENYL)UREIDO)-3-(M-TOLYL)-N-((6AS,12S,13S,15AS,17R,21S,23AS)-13,17,21-TRIMETHYL-3,6,11,15,20,23-HEXAOXOOCTADECAHYDRO-2H,6H,11H,15H-PYRAZINO[2,1-I]DIPYRROLO[2,1-C:2′,1′-L][1]OXA[4,7,10,13]TETRAAZACYCLOHEXADECIN-12-YL)PROPANAMIDE] ({NH(3-Cl-phenyl)-CO}-[Phe(3-Me)][aThr]P[X4]A[Pro(4R-Me)]; ester 2-C) | >20 | 5020 | – | – | – | – | > 20 | > 20 | > 20 | > 20
5 | Cc1cccc(C[C@H](NC(=O)Nc2cccc(Cl)c2)C(=O)N[C@@H]2C(=O)N3C[C@H](O)C[C@H]3C(=O)N3CCCC[C@H]3C(=O)N[C@@H](C)C(=O)N3C[C@H](C)C[C@H]3C(=O)O[C@H]2C)c1 [Compound 62, (S)-2-(3-(3-CHLOROPHENYL)UREIDO)-N-((2R,6S,8AS,14AS,16R,20S,21S,23AS)-16-HYDROXY-2,6,21-TRIMETHYL-5,8,14,19,23-PENTAOXOOCTADECAHYDRO-1H,5H,14H,19H-PYRIDO[2,1-I]DIPYRROLO[2,1-C:2′,1′-L][1]OXA[4,7,10,13]TETRAAZACYCLOHEXADECIN-20-YL)-3-(M-TOLYL)PROPANAMIDE] ({NH(3-Cl-phenyl)-CO}-[Phe(3-Me)][aThr][Hyp][Pip]A[Pro(4R-Me)]; ester 2-C) | >20 | 420 ± 100 | – | – | – | – | 2.5 (≈ 2.06 µg/mL) | 1.25 (≈ 1.03 µg/mL) | 0.625 (≈ 0.514 µg/mL) | 0.625 (≈ 0.514 µg/mL)
6 | Cc1cccc(C[C@H](NC(=O)Nc2ccc(Cl)cc2)C(=O)N[C@H]2COC(=O)[C@@H]3C[C@@H](C)CN3C(=O)[C@H](C)NC(=O)[C@@H]3CCCCN3C(=O)[C@@H]3CCCN3C2=O)c1 [Compound 71, (S)-2-(3-(4-CHLOROPHENYL)UREIDO)-N-((2R,6S,8AS,14AS,20S,23AS)-2,6-DIMETHYL-5,8,14,19,23-PENTAOXOOCTADECAHYDRO-1H,5H,14H,19H-PYRIDO[2,1-I]DIPYRROLO[2,1-C:2′,1′-L][1]OXA[4,7,10,13]TETRAAZACYCLOHEXADECIN-20-YL)-3-(M-TOLYL)PROPANAMIDE] | >20 | 250 ± 100 | – | – | – | – | 0.313 (≈ 0.248 µg/mL) | 0.625 (≈ 0.495 µg/mL) | 0.625 (≈ 0.495 µg/mL) | 0.313 (≈ 0.248 µg/mL)
7 | Cc1cccc(C[C@H](NC(=O)Nc2cccc(Cl)c2)C(=O)N[C@@H]2C(=O)N3C[C@H](O)C[C@H]3C(=O)N3CCCC[C@H]3C(=O)N[C@@H](C)C(=O)N3CCC[C@H]3C(=O)O[C@H]2C)c1 [Compound 60, (S)-2-(3-(3-CHLOROPHENYL)UREIDO)-N-((6S,8AS,14AS,16R,20S,21S,23AS)-16-HYDROXY-6,21-DIMETHYL-5,8,14,19,23-PENTAOXOOCTADECAHYDRO-1H,5H,14H,19H-PYRIDO[2,1-I]DIPYRROLO[2,1-C:2′,1′-L][1]OXA[4,7,10,13]TETRAAZACYCLOHEXADECIN-20-YL)-3-(M-TOLYL)PROPANAMIDE] ({NH(3-Cl-phenyl)-CO}-[Phe(3-Me)][aThr][Hyp][Pip]AP; ester 2-C) | – | 1470 ± 1100 | – | – | – | – | > 20 | > 20 | 10 (≈ 8.08 µg/mL) | 5 (≈ 4.04 µg/mL)
